In ChEMBL document CHEMBL1201862, “PubChem BioAssay data set” (2004):
Calls of active or inactive are those of the source.

How the values were obtained:
[1] = luciferase reporter signal suppression in cells – H4 neuroglioma cells, luminescence, dose response (AID 1990); format: functional, cell-based
[2] = DRD fibroblast viability loss – cell-based, non-viral oncogenic, luminescence, dose response (AID 1934); format: functional; details: Homo sapiens
[3] = alpha-synuclein stem-loop translation blockers – luminescence, H4 neuroglioblastoma cells, dose confirmation, confirmation (AID 2454); format: functional, cell-based;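 also: H4 neuroglioblastoma cells carrying an alpha-synuclein 5'UTR luciferase reporter; potency for inhibition of the luciferase signal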
J774.A1 = experiment: Confirmation of image-based Screening Assay for Inhibitors of Phagocytosis. [Related pubchem assays (depositor defined):AID1029, AID1643]; format: functional, cell-based; details: Mus musculus
[4] = alpha-synuclein stem-loop luciferase translation blockers – H4 neuroglioma cells, luminescence, confirmation (AID 1988); format: functional, cell-based
BJ [5] = experiment: cells; format: functional, cell-based; details: Homo sapiens
[6] = luciferase reporter signal reduction – luminescence, H4-C neuroglioblastoma cells, dose response (AID 2458); format: functional, cell-based;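 also: H4 neuroglioblastoma cells stably carrying a luciferase reporter gene fusion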
cells [7] = format: functional, cell-based
BJ [8] = experiment: BJ-TERT-LT-ST fibroblast viability loss – cell-based, RAS-independent, luminescence, dose response (AID 1935); format: functional; details: Homo sapiens;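 also: BJ fibroblasts immortalized with TERT plus LT and ST oncogenes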
BJ [9] = experiment: BJ-TERT fibroblast viability loss – cell-based, RAS-independent, luminescence, dose response (AID 1933); format: functional; details: Homo sapiens
[10] = molecular target: C-C chemokine receptor type 6 (Homo sapiens, UniProt P51684); experiment: antagonism of CCR6 beta-arrestin recruitment – cell-based, luminescent beta-arrestin readout, dose response (AID 504728); format: functional
[11] = system: Streptococcus sp. 'group A'; experiment: Streptococcus pyogenes SK(-)GAS viability under kanamycin – luminescence, BacTiterGlo, confirmation, counter-screen for streptokinase expression inhibitor project, dose response (AID 1900); format: functional, organism-based
[12] = HepG2 cell cytotoxicity, dose response, cytotoxicity control for non-replicating M. tuberculosis project (AID 489018); format: functional; details: Mycobacterium tuberculosis
[13] = Luminescence Cell-Based Dose Retest to Confirm Inhibitors of Cancer Stem Cells. [Related pubchem assays (depositor defined):AID2717, AID2721]; format: functional; details: Homo sapiens
[14] = Vero E6 cell cytotoxicity, dose response, cytotoxicity control for non-replicating M. tuberculosis project, secondary assay (AID 492998); format: functional, VeroE6; details: Vero C1008
Streptococcus = experiment: GAS UMAA2166 growth inhibition – luminescence, BacTiterGlo, counter-screen for streptokinase expression inhibitor project, dose response (AID 1915); format: functional, organism-based;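 also: potency for reduction of bacterial viability or growth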
[15] = THP-1 cell cytotoxicity, dose response, cytotoxicity control for non-replicating M. tuberculosis project (AID 489025); format: functional
Beta-galactosidase = Beta-galactosidase (Escherichia coli, UniProt Q8VNN2); experiment: detection-enzyme interference by beta-gal modulators – biochemical, E. coli enzyme, set 3, artefact control for CCR6 antagonist project, dose response (AID 504712); format: functional
cells [16] = format: functional
Ephrin type-A receptor 4 = Ephrin type-A receptor 4 (Mus musculus, UniProt Q03137); experiment: EphA4 ligand-binding antagonists – biochemical, colorimetric, mouse EphA4, primary screen (AID 689); format: functional
[17] = molecular target: T1, RNA-binding protein pos-1 (Caenorhabditis elegans, UniProt G5EF15); experiment: disruptors of C. elegans POS-1 RNA interaction – biochemical, fluorescence polarization, dose response (AID 1964);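 also: purified POS-1 fused to maltose binding protein made in E. coli; potency of compounds blocking POS-1 binding to fluorescent RNA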
T1 sequence (G5EF15 whole entry): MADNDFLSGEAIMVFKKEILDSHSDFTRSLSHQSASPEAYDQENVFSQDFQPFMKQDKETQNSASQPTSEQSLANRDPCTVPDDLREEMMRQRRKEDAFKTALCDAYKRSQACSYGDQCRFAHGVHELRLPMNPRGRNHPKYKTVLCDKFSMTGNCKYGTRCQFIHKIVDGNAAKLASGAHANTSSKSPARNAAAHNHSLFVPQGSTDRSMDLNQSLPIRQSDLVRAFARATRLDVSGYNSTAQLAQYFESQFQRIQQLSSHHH

[18] = molecular target: Botulinum neurotoxin type F (Clostridium botulinum, UniProt P30996); experiment: High-throughput multiplex microsphere dose response for inhibitors of toxin protease, specifically Botulinum neurotoxin light chain F protease, compounds from Powder Set 01.; format: functional, Clostridium botulinum Bf; details: read-out: EC50_MICROM
ORF 73 = ORF 73 (Human herpesvirus 8, UniProt O40947); experiment: KSHV LANA DNA-binding disruption – biochemical, fluorescence polarization, cherry-picked samples, dose response (AID 504725); set-up: species or system Human gammaherpesvirus 8;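 also: fluorescence polarization of a labeled DNA duplex reporting LANA DNA binding; potency is for inhibitors that block LANA binding to the DNA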
[19] = molecular target: T2, Botulinum neurotoxin type A (Clostridium botulinum (strain Hall / ATCC 3502 / NCTC 13319 / Type A), UniProt P0DPI1); experiment: High-throughput multiplex microsphere dose response for inhibitors of toxin protease, specifically Botulinum neurotoxin light chain A protease, compounds from Powder Set 01.; format: functional, Clostridium botulinum A str. ATCC 3502; details: read-out: EC50_MICROM
Lethal factor = Lethal factor (Bacillus anthracis, UniProt P15917); experiment: High-throughput multiplex microsphere dose response for inhibitors of toxin protease, specifically Lethal Factor protease, compounds from Powder Set 01.; format: functional, Bacillus anthracis str. A2012; details: read-out: EC50_MICROM
[20] = molecular target: T3, Zinc finger protein mex-5 (Caenorhabditis elegans, UniProt Q9XUB2); experiment: potency of MEX-5 RNA-binding blockers – biochemical, C. elegans, fluorescence polarization, dose response (AID 1960)
T3 sequence (Q9XUB2 whole entry): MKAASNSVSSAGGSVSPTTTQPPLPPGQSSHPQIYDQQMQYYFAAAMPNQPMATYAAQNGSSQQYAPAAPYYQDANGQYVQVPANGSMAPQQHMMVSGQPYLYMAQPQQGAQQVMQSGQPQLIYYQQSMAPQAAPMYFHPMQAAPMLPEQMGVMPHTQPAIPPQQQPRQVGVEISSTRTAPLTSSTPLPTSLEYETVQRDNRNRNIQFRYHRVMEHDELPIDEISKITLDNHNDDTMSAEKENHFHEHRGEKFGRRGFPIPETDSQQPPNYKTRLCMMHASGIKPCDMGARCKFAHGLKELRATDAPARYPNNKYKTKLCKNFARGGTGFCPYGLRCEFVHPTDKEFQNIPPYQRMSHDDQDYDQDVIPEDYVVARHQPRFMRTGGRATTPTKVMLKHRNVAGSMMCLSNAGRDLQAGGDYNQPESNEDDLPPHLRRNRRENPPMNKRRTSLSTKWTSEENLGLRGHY

[21] = molecular target: T2, Botulinum neurotoxin type A; experiment: High-throughput multiplex microsphere dose response for inhibitors of toxin protease, specifically Botulinum neurotoxin light chain A protease, compounds from Cherry Pick 01.; format: functional; details: read-out: EC50_MICROM
Genome polyprotein = Genome polyprotein (dengue virus type 2, UniProt P29990); experiment: flavivirus cap methylation enzyme inhibition – biochemical, confirmation dose response, primary screen (AID 588689); format: functional
[22] = molecular target: 1-acylglycerol-3-phosphate O-acyltransferase ABHD5/Perilipin-5 (Homo sapiens, UniProt Q00G26+Q8WTS1); experiment: Luminescence-based biochemical high throughput dose response assay for inhibitors of the interaction of the lipase co-activator protein, abhydrolase domain containing 5 (ABHD5) with perilipin-5 (MLDP; PLIN5) (2K validation set). [Related pubchem assays (depositor defined):AID493035, AID493241]
Perilipin-1/ABHD5 = Perilipin-1/ABHD5 (Homo sapiens, UniProt O60240+Q8WTS1); experiment: Luminescence-based biochemical high throughput dose response assay for inhibitors of the interaction of the lipase co-activator protein, abhydrolase domain containing 5 (ABHD5) with perilipin-1 (PLIN1) (2K validation set). [Related pubchem assays (depositor defined):AID493027, AID493057]
[23] = molecular target: Voltage-dependent T-type calcium channel subunit alpha-1H (Homo sapiens, UniProt O95180); experiment: human CACNA1H calcium influx blockade – cell-based, synthetic library set 1, calcium flux (AID 493022); format: functional
[24] = molecular target: T4, Kappa-type opioid receptor (Homo sapiens, UniProt P41145); experiment: SAR analysis of small molecule antagonists of the kappa opioid receptor via a luminescent beta-arrestin assay - Set 4. [Related pubchem assays (depositor defined):AID1777, AID1778, AID1785, AID1786, AID1966, AID2133, AID2136, AID2285]; format: functional
[25] = molecular target: T4, Kappa-type opioid receptor; experiment: SAR analysis of Antagonists of the Kappa Opioid Receptor (KOR) using an Image-Based Assay - Set 4. [Related pubchem assays (depositor defined):AID1777, AID1785]; format: functional
[26] = molecular target: T4, Kappa-type opioid receptor; experiment: SAR analysis of small molecule antagonists of the kappa opioid receptor via a luminescent beta-arrestin assay - Set 6. [Related pubchem assays (depositor defined):AID1777, AID1778, AID1785, AID1786, AID1966, AID2133, AID2136, AID2285]; format: functional
Mu-type opioid receptor = Mu-type opioid receptor (Homo sapiens, UniProt P35372); experiment: SAR Analysis of Antagonists of the MOR Receptor using an Image-Based Assay - Set 3. [Related pubchem assays (depositor defined):AID1777, AID1785, AID1786, AID1966, AID2133, AID2136, AID2284, AID2285, AID2420]; format: functional
[27] = molecular target: Delta-type opioid receptor (Homo sapiens, UniProt P41143); experiment: SAR Analysis of Antagonists of the DOR Receptor using an Image-Based Assay - Set 3. [Related pubchem assays (depositor defined):AID1777, AID1785]; format: functional;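 also: U2OS cells expressing DOR1 and beta-arrestin GFP stimulated with 100 nM SNC80; imaging of GFP-tagged beta-arrestin moving into spots after receptor activation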

For COc1ccccc1C1CC(=O)Nc2cc3c(cc21)OCCO3 (stereo unspecified), which EC50 [1] is on record?
Its EC50 is 7.13 µM (inconclusive).

What about the EC50 [2] of the same compound?
The EC50 was 2 µM (active).

What about the EC50 [3] of the same compound?
Its EC50 is > 12 µM (not active).

What about the IC50 (J774.A1) of the same compound?
The IC50 was > 25 µM (inactive).

What about the EC50 [4] of the same compound?
Its EC50 is < 0.1 µM (active).

What about the EC50 (BJ [5]) of the same compound?
The EC50 was 19.4 µM (active).

And the EC50 [6]?
The EC50 was 2.17 µM (active).

And the EC50 (cells [7])?
Its EC50 is > 12 µM (not active).

And the EC50 (BJ [8])?
Its EC50 is 1.4 µM (inconclusive).

And the EC50 (BJ [9])?
Its EC50 is 7.46 µM (active).

What does the source list for Cc1cc(NCc2ccccn2)n2nc(C)c(-c3ccc(Cl)cc3)c2n1?
IC50 [10]: > 66.6 µM (inactive); EC50 [11]: 2.89 µM (active); CC50 [12]: 3.6 µM (active); AC50 [13]: 3.86 µM (active); CC50 [14]: 15.1 µM (active); EC50 (Streptococcus): 6.9 µM (active); CC50 [15]: 6.61 µM (active); IC50 (Beta-galactosidase): > 66.6 µM (inactive); IC50 (cells [16]): 2.1 µM (active)

Which results are given for c1ccc(-c2cn3nc(-c4ccccc4)c(-c4ccccc4)nc3n2)cc1?
IC50 (Ephrin type-A receptor 4): 1.2 µM (active); EC50 [17]: 2.82 µM (active); EC50 [18]: 5.3 µM (active); AC50 (ORF 73): 47.3 µM (active); EC50 [19]: 0.6 µM (active); EC50 (Lethal factor): 1.6 µM (active); EC50 [20]: 3.84 µM (active); EC50 [21]: 5.8 µM (active)

Which IC50 (Genome polyprotein) does the source give for CCOc1ccc(N2C(=O)NC(=O)/C(=C\c3cc(OC)c(OC)cc3[N+](=O)[O-])C2=O)cc1 here?
The IC50 was 27.6 µM (active).

What about the IC50 [22] of the same compound?
The IC50 was 2.8 µM (active).

What about the IC50 (Perilipin-1/ABHD5) of the same compound?
The IC50 was 2.21 µM (active).

Which EC50 [23] does the source give for O=C(COc1ccccc1F)Nc1nnc(-c2ccc3c(c2)OCO3)o1 here?
Its EC50 is 10 µM (active).

Which IC50 [24] does the source give for COc1ccc(N2CCN(CCCCNC(=O)Cn3c(=O)c4cccn4c4c(C)ccnc43)CC2)cc1 here?
The IC50 was 0.907 µM (active).

What about the IC50 [25] of the same compound?
The IC50 was 0.00521 µM (active).

What about the IC50 [26] of the same compound?
The IC50 was 1.59 µM (active).

And the IC50 (Mu-type opioid receptor)?
Its IC50 is > 32 µM (inactive).

What about the IC50 [27] of the same compound?
The IC50 was > 32 µM (inactive).
